Results as given in US20090047218A1, “Method for producing albumin conjugates comprising an X-ray contrast medium as the active substance” (Albupharm Heidelberg GmbH & Co. KG, priority 2005, published 2009).

Assay: Stability of iodine-containing X-ray contrast medium against radiation (iodine-starch reaction)
Type: physicochemical
Conditions: about 40 mg in 40 ml 0.1% starch solution
Method: Approximately 40 mg 2,3,5-triiodobenzoic acid (TIB) or another X-ray contrast medium that can be obtained commercially (diatrizoic acid or iotalamic acid etc.) is dissolved in 40 ml of a 0.1% starch solution while gently heating. 20 ml is in each case distributed to two Petri dishes (diameter 11.5 cm). Dish 1 is placed in full sunlight for 1 hour. Dish 2 is irradiated at a distance of 11 cm with a UV hand-held lamp (254 nm, 14 μW/cm^2).
This is even more significant because the energy of the UV irradiation (like the intensity of the irradiation source used) is approximately 100-fold lower than that of the X-ray irradiation of a computer tomograph.

O=C(O)c1cc(I)cc(I)c1I [2,3,5-triiodobenzoic acid]
colour of the solution (iodine-starch reaction) after exposure to daylight (dish 1, full sunlight for 1 hour): still colourless
colour of the solution (iodine-starch reaction) after UV irradiation (dish 2, UV hand-held lamp 254 nm, 14 μW/cm^2, distance 11 cm): typical, intensive blue staining of the iodine-starch reaction
